Measurements reported in BindingDB's records for patent US9102669 (Janssen Pharmaceutica, 2015).

Molecular target: T1, Acyl-CoA desaturase 1 (Rattus norvegicus, UniProt P07308)
T1 sequence (P07308 whole entry): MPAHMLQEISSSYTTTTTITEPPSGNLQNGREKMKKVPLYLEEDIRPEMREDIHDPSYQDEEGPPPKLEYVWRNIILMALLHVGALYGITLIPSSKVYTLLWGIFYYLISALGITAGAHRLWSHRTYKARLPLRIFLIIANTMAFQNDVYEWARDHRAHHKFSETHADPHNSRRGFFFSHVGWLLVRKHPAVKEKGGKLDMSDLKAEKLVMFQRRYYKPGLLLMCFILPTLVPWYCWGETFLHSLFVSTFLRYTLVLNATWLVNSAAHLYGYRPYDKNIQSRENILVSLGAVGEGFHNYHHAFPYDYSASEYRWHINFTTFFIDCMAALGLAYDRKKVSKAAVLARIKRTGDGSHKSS
Test: Enzymatic Assay
Settings: 25 °C
Method: The SCD1 enzymatic assay was done in a volume of 50 μL using 10 μg of RLM (prepared as described above) in a 96-well polypropylene plate (enzyme reaction buffer contains 0.1 M K-Phosphate Buffer, 10 mM ATP, 6 mM MgCl2. 1 mM CoA, 1 mM β-NADH, 1.6 mM L-glutathione, 20 μM Stearoyl-CoA). […] Test compound was then added to the reaction mixture at the selected concentration. After incubation at room temperature for 2 hours, 5 μL 1 N HCl was added to stop the reaction, followed by addition of 25 μL of 10% charcoal. The reaction mixture was then transferred to 96-well Multiscreen plate (Millipore, Cat#MSFCN6B50).

IC50: > 1000 nM
SMILES: Cn1cc(-c2ccc(N3CCC(N4CCc5c(Cl)cc(Cl)cc54)CC3)nn2)cn1 [US9102669, 68]
